5 substances from patent US6936585B2, “Corticotropin releasing factor 2 receptor agonists” (priority 2002, dated 2005) can be followed below.

Ends that are not written are not given here.

The target of the first test is T1, CRF2R (Homo sapiens, UniProt Q13324).
T1 sequence (Q13324 1-411): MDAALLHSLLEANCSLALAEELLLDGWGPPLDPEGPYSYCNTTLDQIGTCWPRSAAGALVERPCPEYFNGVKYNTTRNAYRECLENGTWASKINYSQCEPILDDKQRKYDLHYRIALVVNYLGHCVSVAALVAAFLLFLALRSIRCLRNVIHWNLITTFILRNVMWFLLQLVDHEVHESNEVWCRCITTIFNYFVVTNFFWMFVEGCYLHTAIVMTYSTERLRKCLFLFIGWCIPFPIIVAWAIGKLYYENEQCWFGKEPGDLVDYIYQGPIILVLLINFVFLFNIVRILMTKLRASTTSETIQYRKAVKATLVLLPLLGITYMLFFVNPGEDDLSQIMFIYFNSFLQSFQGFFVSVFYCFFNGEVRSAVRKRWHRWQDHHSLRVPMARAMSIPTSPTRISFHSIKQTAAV
Kind of test: CRF2R agonist activation (EC50 / Emax), called comparative CRF binding. It is filed as cell-based. The settings on record: read-out: CRF2R Emax. The gist of the method: (§1)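 Read-out is Gαs-driven cAMP induction, quantified directly in lysates or through CRE-reporter gene expression, after treating CRF1R- or CRF2R-expressing cells with peptide. Vehicle-treated cells serve as the comparison.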
For “SQEPPISLDLPTYLLREVLEMTKADQLAQQAHSNRKLLDIA-NH2 [compound 106]”, the Emax (as a rule, the greatest response seen or fitted, relative to the assay's reference) was found to be 6.1%.

For the substance “SQEPPISLDLTFGLLREVLEMTKADQLAQQAHSNRKLLDIA-NH2 [compound 88]”, the maximal effect (Emax) is 12.6%.

On to “SQEPPISLDLTFHLLREVLEQARARAAREQATTNARILARV-NH2 [compound 157]”, for which the Emax is 60.6%.

For the substance “SQEPPISLDLTIGLLREVLEMTKADQLAQQAHSNRKLLDIA-NH2 [compound 86]”, the Emax was 8.1%.

“SQEPPISLDLTIHLLREVLEMTKADQLAQQAHSNRKLLDIA-NH2 [compound 87]”: the maximum response (Emax) worked out at 14.7%.

The next test addresses T2, CRF1R (Homo sapiens, UniProt P34998).
T2 sequence (P34998 24-415): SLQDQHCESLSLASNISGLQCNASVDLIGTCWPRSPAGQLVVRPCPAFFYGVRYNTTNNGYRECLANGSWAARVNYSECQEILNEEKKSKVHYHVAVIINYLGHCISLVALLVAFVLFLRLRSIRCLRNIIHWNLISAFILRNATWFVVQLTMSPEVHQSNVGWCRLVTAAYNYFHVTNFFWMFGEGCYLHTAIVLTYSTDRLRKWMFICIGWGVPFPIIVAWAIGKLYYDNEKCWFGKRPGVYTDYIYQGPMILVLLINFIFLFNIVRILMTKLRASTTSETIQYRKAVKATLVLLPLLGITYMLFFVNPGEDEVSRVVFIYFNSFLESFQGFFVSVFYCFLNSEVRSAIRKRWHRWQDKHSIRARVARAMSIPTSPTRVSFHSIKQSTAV
Kind of test: CRF1R agonist activation (EC50 / Emax), called comparative CRF binding. It is filed as cell-based. The following applies: read-out: CRF1R Emax. The procedure, abridged: as §1
Turning to “SQEPPISLDLPTYLLREVLEMTKADQLAQQAHSNRKLLDIA-NH2 [compound 106]”, the Emax was determined as 4.8%.

Turning to “SQEPPISLDLTFGLLREVLEMTKADQLAQQAHSNRKLLDIA-NH2 [compound 88]”, the maximal effect (Emax) turned out to be 11.2%.

With “SQEPPISLDLTFHLLREVLEQARARAAREQATTNARILARV-NH2 [compound 157]”, the Emax was determined as 91%.

As to “SQEPPISLDLTIGLLREVLEMTKADQLAQQAHSNRKLLDIA-NH2 [compound 86]”, the Emax came to 4.6%.

Regarding “SQEPPISLDLTIHLLREVLEMTKADQLAQQAHSNRKLLDIA-NH2 [compound 87]”, the Emax stood at 5.3%.
